ChEMBL document CHEMBL1130678, “Thio-sugars. IV: Design and synthesis of S-linked fucoside analogs as a new class of alpha-L-fucosidase inhibitors” (Bioorg Med Chem Lett, 1998)

Biological target: T1, Tissue alpha-L-fucosidase (Homo sapiens, UniProt P04066)
T1 sequence (P04066 whole entry): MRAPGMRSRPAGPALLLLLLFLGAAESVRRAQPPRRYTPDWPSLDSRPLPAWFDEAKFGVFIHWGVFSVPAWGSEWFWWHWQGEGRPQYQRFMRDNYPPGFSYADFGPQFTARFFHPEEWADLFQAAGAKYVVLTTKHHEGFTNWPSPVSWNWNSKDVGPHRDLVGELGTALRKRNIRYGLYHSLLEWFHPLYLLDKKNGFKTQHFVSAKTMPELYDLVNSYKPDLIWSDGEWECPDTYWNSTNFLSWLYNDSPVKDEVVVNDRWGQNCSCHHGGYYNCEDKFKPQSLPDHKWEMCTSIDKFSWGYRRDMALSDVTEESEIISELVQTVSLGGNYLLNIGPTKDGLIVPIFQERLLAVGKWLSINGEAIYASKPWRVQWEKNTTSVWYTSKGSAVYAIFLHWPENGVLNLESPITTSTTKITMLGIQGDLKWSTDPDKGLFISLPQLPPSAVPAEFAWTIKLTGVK
Assay: Inhibitory activity against alpha-L-fucosidase in human placenta at PH of 6.5; Mixed Inhibition type

## CC(=O)NCSC1OC(C)C(O)C(O)C1O (stereo unspecified)
  Ki: 3.9 µM
